Where a SMILES comes first, the peptide text is derived from it. Bridges are numbered along the chain shown (N, C = ends). [ ]: non-standard residue; d: D form. 2Nal = N[C@@H](Cc1ccc2ccccc2c1)C(=O)O; NMeF = CN[C@@H](Cc1ccccc1)C(=O)O; dTic = O=C(O)[C@H]1Cc2ccccc2CN1; dThz = O=C(O)[C@H]1CSCN1
What follows are molecules tested against T1, P-selectin (Homo sapiens, UniProt P16109) (assay: Inhibition of human neutrophil adhesion to purified P-selectin immobilized on plastic wells). Conditions: inhibiting the binding of human neutrophils to P-selectin.
T1 construct: P-selectin is isolated from human platelet lysates; from tissue; host or cells: human platelets (outdated platelet packs from a blood bank)
T1 sequence (P16109 42-830): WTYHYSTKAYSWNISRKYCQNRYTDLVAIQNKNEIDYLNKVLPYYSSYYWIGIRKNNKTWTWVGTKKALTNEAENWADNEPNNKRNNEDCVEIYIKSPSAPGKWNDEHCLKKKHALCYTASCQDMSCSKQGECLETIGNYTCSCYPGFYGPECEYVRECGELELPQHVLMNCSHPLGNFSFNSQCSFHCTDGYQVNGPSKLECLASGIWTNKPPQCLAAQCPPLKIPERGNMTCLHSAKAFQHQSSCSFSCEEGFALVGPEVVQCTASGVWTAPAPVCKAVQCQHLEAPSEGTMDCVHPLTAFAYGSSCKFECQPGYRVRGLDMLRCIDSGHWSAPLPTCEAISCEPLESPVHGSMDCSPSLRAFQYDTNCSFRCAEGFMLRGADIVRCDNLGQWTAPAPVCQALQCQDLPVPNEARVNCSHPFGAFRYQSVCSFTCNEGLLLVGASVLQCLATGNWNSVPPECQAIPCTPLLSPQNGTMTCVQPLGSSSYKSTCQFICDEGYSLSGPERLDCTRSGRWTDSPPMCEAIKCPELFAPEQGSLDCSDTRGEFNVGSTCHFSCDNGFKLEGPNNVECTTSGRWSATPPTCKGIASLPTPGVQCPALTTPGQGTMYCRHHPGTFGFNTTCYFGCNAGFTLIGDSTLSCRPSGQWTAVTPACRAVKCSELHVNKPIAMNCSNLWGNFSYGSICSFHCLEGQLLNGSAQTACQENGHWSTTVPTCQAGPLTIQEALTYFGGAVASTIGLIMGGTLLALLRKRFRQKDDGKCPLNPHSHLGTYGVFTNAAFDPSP
Assay type: cell-based
Excerpt: Peptides can be screened for their ability to inhibit adhesion to cells, for example, neutrophil adhesion to purified P-selectin immobilized on plastic wells, using the assay described by Geng, et al., Nature 343, 757-760 (1990). Human neutrophils are isolated from heparinized whole blood by density gradient centrifugation on Mono-Poly resolving media, Flow Laboratories. Neutrophil suspensions are greater than 98% pure and greater than 95% viable by trypan blue exclusion. For adhesion assays, neutrophils are suspended at a concentration of 2×10^6 cells/mL in Hanks' balanced salt solution containing 1.26 mM Ca^2+ and 0.81 mM Mg^2+ (HBSS, Gibco) with […] human serum albumin (HBSS/HSA). Adhesion assays are conducted in triplicate in 96-well microliter plates, Corning, incubated at 4° C. overnight with 50 microliters of various protein solutions. P-selectin is isolated from human platelet lysates by immunoaffinity chromatography on antibody S12-Sepharose™ and ion-exchange chromatography on a Mono-Q™ column (FLPC, Pharmacia Fine Chemicals), as follows. Outdated human platelet packs (100 units) obtained from a blood bank and stored at 4° C. are pooled, adjusted to 5 mM EDTA at pH 7.5, centrifuged at 4,000 rpm for 30 minutes in 1 liter bottles, then washed three times with 1 liter of 0.1M NaCl, 20 mM Tris pH 7.5 (TBS), 5 mM EDTA, 5 mM benzamidine. The pellets are then resuspended in a minimum amount of wash buffer and made 1 mM in DIFP, then frozen in 50 mL screwtop tubes at -80° C. The frozen platelets are thawed and resuspended in 50 mL TBS, 5 mM benzamidine, 5 mM EDTA pH 7.5, […]. The suspension is frozen and thawed two times in a dry ice-acetone bath using a 600 mL lyophilizing flask, then homogenized in a glass/teflon mortar and pestle and made 1 mM in DIFP. The NaCl concentration is adjusted to 0.5M with a stock solution of 4M NaCl. After stirring the suspension at 4° C., it is centrifuged in polycarbonate tubes at 33,000 rpm for 60 minutes at 4° C. The supernatant (0.5M NaCl wash) is removed and saved; this supernatant contains the soluble form of P-selectin. Care is taken not to remove the top part of the pellet with the supernatant. The pellets are then homogenized in extraction buffer (TBS, 5 mM benzamidine, 5 mM EDTA, pH 7.5, 100 μM leupeptin, 2% Triton X-100). After centrifugation at 19,500 rpm for 25 minutes at 4° C., the supernatant is removed. The extraction procedure is repeated with the pellet and the supernatant is combined with the first supernatant. The combined extracts, which contain the membrane form of P-selectin, are adjusted to 0.5M NaCl. The soluble fraction (0.5M NaCl wash) and the membrane extract (also adjusted to 0.5M NaCl) are absorbed with separate pools of the monoclonal antibody S12 (directed to P-selectin) previously couple […]) at 5 mg/mL for 2 hours at 4° C. After letting the resins settle, the supernatants are removed. The S12 Affigel containing bound GMP-140 is then loaded into a column and washed overnight at 4° C. with 400 mL of 0.5M NaCl, 20 mM Tris pH 7.5, 0.01% Lubrol PX. Bound P-selectin is eluted from the S12 Affigel with 100 mL of 80% ethylene glycol, 1 mM MES pH 6.0, 0.01% Lubrol PX. Peak fractions with absorbance at 280 nm are pooled. Eluates are dialyzed against TBS with 0.05% Lubrol, then applied to a Mono Q column (FPLC from Pharmacia). The concentrated protein is step eluted with 2M NaCl, 20 mM Tris pH 7.5 (plus 0.05% Lubrol PX for the membrane fraction). Peak fractions are dialyzed into TBS pH 7.5 (plus 0.05% Lubrol PX for the membrane fraction). P-selectin is plated at 5 micrograms/mL and the control proteins: human serum albumin (Alb), platelet glycoprotein IIb/IIIa (IIb), von Willebrand factor (vWF), fibrinogen (FIB), thrombomodulin (TM), gelatin (GEL) or human serum (HS), are added at 50 micrograms/mL. […]

Structure (SMILES)	IC50 [µM]
CC(C)[C@@H](NC(=O)[C@@H](Cc1c[nH]c2ccccc12)NC(=O)[C@H](NC(=O)[C@@H](Cc1c[nH]c2ccccc12)NC(=O)[C@H]1CSSC[C@@H](NC(=O)[C@@H](CCCCN)NC(=O)[C@H](N)CCCNC(=N)N)C(=O)NCC(=O)N2CSC[C@@H]2C(=O)N1)[C@H](C)O)C(N)=O [(58)] (H-[dR][dK][dC]G[dThz][dC][dW][dT][dW][dV]-NH2; disulfide 3-6)	186
CC(C)[C@@H](NC(=O)[C@@H](Cc1c[nH]c2ccccc12)NC(=O)[C@H](NC(=O)[C@@H](Cc1c[nH]c2ccccc12)NC(=O)[C@H]1CSSC[C@@H](NC(=O)[C@@H](CCCCN)NC(=O)[C@H](N)CCCNC(=N)N)C(=O)NCC(=O)N2Cc3ccccc3C[C@@H]2C(=O)N1)[C@H](C)O)C(N)=O [(59)] (H-[dR][dK][dC]G[dTic][dC][dW][dT][dW][dV]-NH2; disulfide 3-6)	18.3
CC(C)[C@@H](NC(=O)[C@@H](Cc1c[nH]c2ccccc12)NC(=O)[C@H](NC(=O)[C@@H](Cc1c[nH]c2ccccc12)NC(=O)[C@H]1CSSC[C@@H](NC(=O)[C@@H](CCCCN)NC(=O)[C@H](N)CCCNC(=N)N)C(=O)NCC(=O)N[C@@H](Cc2c[nH]c3ccccc23)C(=O)N1)[C@H](C)O)C(N)=O [(60)] (H-[dR][dK][dC]GW[dC][dW][dT][dW][dV]-NH2; disulfide 3-6)	1.4
CC(C)[C@@H](NC(=O)[C@@H](Cc1ccc(O)cc1)NC(=O)[C@H](NC(=O)[C@@H](Cc1c[nH]c2ccccc12)NC(=O)[C@H]1CSSC[C@@H](NC(=O)[C@@H](CCCCN)NC(=O)[C@H](N)CCCNC(=N)N)C(=O)NCC(=O)N[C@@H](Cc2ccccc2)C(=O)N1)[C@H](C)O)C(N)=O [(63)] (H-[dR][dK][dC]GF[dC][dW][dT][dY][dV]-NH2; disulfide 3-6)	19.3
CC(C)[C@@H](NC(=O)[C@@H](Cc1c[nH]c2ccccc12)NC(=O)[C@H](NC(=O)[C@@H](Cc1c[nH]c2ccccc12)NC(=O)[C@H]1CSSC[C@@H](NC(=O)[C@@H](CCCCN)NC(=O)[C@H](N)CCCNC(=N)N)C(=O)NCC(=O)N(C)[C@@H](Cc2ccccc2)C(=O)N1)[C@H](C)O)C(N)=O [(72)] (H-[dR][dK][dC]G[NMeF][dC][dW][dT][dW][dV]-NH2; disulfide 3-6)	37.7
CC(C)[C@@H](NC(=O)[C@@H](Cc1c[nH]c2ccccc12)NC(=O)[C@H](NC(=O)[C@@H](Cc1c[nH]c2ccccc12)NC(=O)[C@H]1CSSC[C@@H](NC(=O)[C@@H](CCCCN)NC(=O)[C@H](N)CCCNC(=N)N)C(=O)NCC(=O)N[C@@H](Cc2ccc3ccccc3c2)C(=O)N1)[C@H](C)O)C(N)=O [(73)] (H-[dR][dK][dC]G[2Nal][dC][dW][dT][dW][dV]-NH2; disulfide 3-6)	3.2
CC(C)[C@H](NC(=O)[C@H]1CSSC[C@@H](NC(=O)[C@@H](CCCCN)NC(=O)[C@H](N)CCCNC(=N)N)C(=O)NCC(=O)N[C@@H](Cc2ccccc2)C(=O)N1)C(=O)N[C@H](Cc1c[nH]c2ccccc12)C(=O)N[C@@H](C(=O)N[C@H](Cc1c[nH]c2ccccc12)C(N)=O)[C@H](C)O [(75)] (H-[dR][dK][dC]GF[dC]V[dW][dT][dW]-NH2; disulfide 3-6)	6
CC(C)[C@@H](NC(=O)[C@@H](Cc1ccc2ccccc2c1)NC(=O)[C@H](NC(=O)[C@@H](Cc1c[nH]c2ccccc12)NC(=O)[C@H]1CSC[C@@H](NC(=O)[C@@H](CCCCN)NC(=O)[C@H](N)CCCNC(=N)N)C(=O)NCC(=O)N[C@@H](Cc2ccccc2)C(=O)N1)[C@H](C)O)C(N)=O [(78)]	50.7
CC(C)[C@@H](NC(=O)[C@@H](Cc1c[nH]c2ccccc12)NC(=O)[C@H](NC(=O)[C@@H](Cc1c[nH]c2ccccc12)NC(=O)[C@H]1CSC[C@@H](NC(=O)[C@@H](CCCCN)NC(=O)[C@H](N)CCCNC(=N)N)C(=O)NCC(=O)N[C@@H](Cc2ccccc2)C(=O)N1)[C@H](C)O)C(N)=O [(81)]	10.6
CC(C)[C@@H](NC(=O)[C@@H](Cc1c[nH]c2ccccc12)NC(=O)[C@H](NC(=O)[C@@H]1CCCN1C(=O)[C@H]1CSSC[C@@H](NC(=O)[C@@H](CCCCN)NC(=O)[C@H](N)CCCNC(=N)N)C(=O)NCC(=O)N[C@@H](Cc2ccccc2)C(=O)N1)[C@H](C)O)C(N)=O [(82)] (H-[dR][dK][dC]GF[dC]P[dT][dW][dV]-NH2; disulfide 3-6)	547

The remaining molecules from weak to strong by IC50, led by results:

IC50 [µM]	Structure (SMILES)
2270	CC(C)[C@@H](NC(=O)[C@H]1CCCN1C(=O)[C@H](NC(=O)[C@@H](Cc1c[nH]c2ccccc12)NC(=O)[C@H]1CSSC[C@@H](NC(=O)[C@@H](CCCCN)NC(=O)[C@H](N)CCCNC(=N)N)C(=O)NCC(=O)N[C@@H](Cc2ccccc2)C(=O)N1)[C@H](C)O)C(N)=O [(77)] (H-[dR][dK][dC]GF[dC][dW][dT][dP][dV]-NH2; disulfide 3-6)
533	CC(C)[C@@H](NC(=O)[C@@H](CCCCN)NC(=O)[C@H](NC(=O)[C@@H](Cc1c[nH]c2ccccc12)NC(=O)[C@H]1CSSC[C@@H](NC(=O)[C@@H](CCCCN)NC(=O)[C@H](N)CCCNC(=N)N)C(=O)NCC(=O)N[C@@H](Cc2ccccc2)C(=O)N1)[C@H](C)O)C(N)=O [(62)] (H-[dR][dK][dC]GF[dC][dW][dT][dK][dV]-NH2; disulfide 3-6)
65.4	CC(C)[C@@H](NC(=O)[C@@H](Cc1c[nH]cn1)NC(=O)[C@H](NC(=O)[C@@H](Cc1c[nH]c2ccccc12)NC(=O)[C@H]1CSSC[C@@H](NC(=O)[C@@H](CCCCN)NC(=O)[C@H](N)CCCNC(=N)N)C(=O)NCC(=O)N[C@@H](Cc2ccccc2)C(=O)N1)[C@H](C)O)C(N)=O [(61)] (H-[dR][dK][dC]GF[dC][dW][dT][dH][dV]-NH2; disulfide 3-6)
46.2	CC(C)[C@@H](NC(=O)[C@@H](Cc1c[nH]c2ccccc12)NC(=O)[C@H](NC(=O)[C@@H](Cc1ccc(O)cc1)NC(=O)[C@H]1CSSC[C@@H](NC(=O)[C@@H](CCCCN)NC(=O)[C@H](N)CCCNC(=N)N)C(=O)NCC(=O)N[C@@H](Cc2ccccc2)C(=O)N1)[C@H](C)O)C(N)=O [(64)] (H-[dR][dK][dC]GF[dC][dY][dT][dW][dV]-NH2; disulfide 3-6)
11.1	CC[C@@H](C)[C@H]1NC(=O)[C@H]([C@@H](C)CC)NC(=O)[C@H](NC(=O)[C@@H](CCCCN)NC(=O)[C@H](N)CCCNC(=N)N)CSSC[C@H](C(=O)N[C@H](Cc2c[nH]c3ccccc23)C(=O)N[C@@H](C(=O)N[C@H](Cc2c[nH]c3ccccc23)C(=O)N[C@@H](C(N)=O)C(C)C)[C@H](C)O)NC1=O [(67)] (H-[dR][dK][dC]I[dI][dC][dW][dT][dW][dV]-NH2; disulfide 3-6)

From patent US5753617A, “Peptide inhibitors of cellular adhesion” (Centocor, Inc., priority 1995, dated 1998)
